# Measured values from paper PMC6422671 (British Journal of Clinical Pharmacology, 2019).
# Entries after “also recorded” stand apart in the source; their conditions may differ. Where two headings read alike, the source gives them in different places.
# Columns and labels:
# xanthine oxidase = tested on: xanthine oxidase; design: method as in E Michaëlsson et al., manuscript in preparation; details: in vitro; ref E Michaëlsson et al., manuscript in preparation; cited from earlier work
# CYP3A4 = tested on: CYP3A4; design: method as in unpublished data; details: in vitro; ref unpublished data; cited from earlier work
# [1] = tested on: urate anion exchanger 1 (URAT1; SLC22A12); design: method as in E Michaëlsson et al., manuscript in preparation; details: in vitro; ref E Michaëlsson et al., manuscript in preparation; cited from earlier work
# [2] = Adverse event monitoring, phase I single dose
# Experimental: Safety assessments included adverse event (AE) monitoring, vital signs monitoring (systolic and diastolic blood pressure, pulse rate), electrocardiography, physical examinations and laboratory assessments (haematology, clinical chemistry and urinalysis).
# The pharmacokinetic analysis set included all participants in the safety analysis set with evaluable pharmacokinetic data and no major protocol deviations. Analyses were performed using Statistical Analysis System (SAS) software, version 9.4. Descriptive statistics were not presented if there were fewer than 3 values available.
# serum uric acid = assay: Serum uric acid (urate), exploratory pharmacodynamic outcome; table data mean (standard deviation); format: in vivo, healthy men; details: for decrease in mean serum uric acid concentration: 48 hours after dosing
# Excerpt: The primary objective of the study was to evaluate the safety and tolerability of AZD4831 in healthy volunteers.
# Data are mean (standard deviation).
# [3] = Plasma pharmacokinetics after single oral dose, phase I; data geometric mean (coefficient of variation), t max median (range); format: in vivo, healthy men; details: for AUC(0-inf) / AUC(0-t) / Cmax / Tmax / Vd/F / half-life: male, human, plasma; for Tmax: median (range); for Vd/F: read-out: Vz/F
# Experimental: Participants fasted overnight for at least 10 hours before dosing. […] Participants resided at the study centre until 48 hours postdose and attended a follow‐up visit 7–10 days after dosing.
# This dose was selected by the Safety Review Committee based on all available data for one or more higher doses in part A. Participants once again resided at the study centre until 48 hours postdose and attended a follow‐up visit 7–10 days after dosing.
# Blood samples were collected only up to 48 hours after dosing for the first cohort; the sampling schedule was amended thereafter to include the later time points. Samples for determination of AZD4831 in plasma were analysed by Covance Laboratories Ltd. (Harrogate, UK). […] This method was validated prior to sample analysis in the range 2–2000 nmol L^−1 in plasma, using a 25 μL sample aliquot.
# [4] = 45 mg after high-fat, high-calorie meal vs fasting
smiles,measurement,setting,value
C[C@@H](N)c1cc(Cl)ccc1Cn1c(=S)[nH]c(=O)c2[nH]ccc21 [AZD4831],inhibition of xanthine oxidase,xanthine oxidase,does not inhibit; also recorded: is not a substrate or an inhibitor
same,involvement of CYP3A4 in metabolism,CYP3A4,involved in the metabolism
same,inhibition of URAT1 uric acid transport,[1],does not inhibit
same,Any AE,[2]; 5 mg fasted n = 6,2 (33.3) n (%)
same,Epistaxis,[2]; 5 mg fasted n = 6,0 n (%)
same,Gastroenteritis,[2]; 5 mg fasted n = 6,0 n (%)
same,Headache,[2]; 5 mg fasted n = 6,0 n (%)
same,Nasopharyngitis,[2]; 5 mg fasted n = 6,0 n (%)
same,Oropharyngeal pain,[2]; 5 mg fasted n = 6,1 (16.7) n (%)
same,Rash maculopapular,[2]; 5 mg fasted n = 6,0 n (%)
same,Restlessness,[2]; 5 mg fasted n = 6,1 (16.7) n (%)
same,Rhinitis,[2]; 5 mg fasted n = 6,0 n (%)
same,Any AE,[2]; 15 mg fasted n = 6,2 (33.3) n (%)
same,Epistaxis,[2]; 15 mg fasted n = 6,1 (16.7) n (%)
same,Gastroenteritis,[2]; 15 mg fasted n = 6,0 n (%)
same,Headache,[2]; 15 mg fasted n = 6,1 (16.7) n (%)
same,Nasopharyngitis,[2]; 15 mg fasted n = 6,0 n (%)
same,Oropharyngeal pain,[2]; 15 mg fasted n = 6,0 n (%)
same,Rash maculopapular,[2]; 15 mg fasted n = 6,0 n (%)
same,Restlessness,[2]; 15 mg fasted n = 6,0 n (%)
same,Rhinitis,[2]; 15 mg fasted n = 6,0 n (%)
same,Any AE,[2]; 45 mg fasted n = 6,3 (50.0) n (%)
same,Epistaxis,[2]; 45 mg fasted n = 6,0 n (%)
same,Gastroenteritis,[2]; 45 mg fasted n = 6,1 (16.7) n (%)
same,Headache,[2]; 45 mg fasted n = 6,2 (33.3) n (%)
same,Nasopharyngitis,[2]; 45 mg fasted n = 6,0 n (%)
same,Oropharyngeal pain,[2]; 45 mg fasted n = 6,0 n (%)
same,Rash maculopapular,[2]; 45 mg fasted n = 6,1 (16.7) n (%)
same,Restlessness,[2]; 45 mg fasted n = 6,0 n (%)
same,Rhinitis,[2]; 45 mg fasted n = 6,0 n (%)
same,Any AE,[2]; 45 mg fed n = 4,0 n (%)
same,Epistaxis,[2]; 45 mg fed n = 4,0 n (%)
same,Gastroenteritis,[2]; 45 mg fed n = 4,0 n (%)
same,Headache,[2]; 45 mg fed n = 4,0 n (%)
same,Nasopharyngitis,[2]; 45 mg fed n = 4,0 n (%)
same,Oropharyngeal pain,[2]; 45 mg fed n = 4,0 n (%)
same,Rash maculopapular,[2]; 45 mg fed n = 4,0 n (%)
same,Restlessness,[2]; 45 mg fed n = 4,0 n (%)
same,Rhinitis,[2]; 45 mg fed n = 4,0 n (%)
same,Any AE,[2]; 135 mg fasted n = 6,3 (50.0) n (%)
same,Epistaxis,[2]; 135 mg fasted n = 6,0 n (%)
same,Gastroenteritis,[2]; 135 mg fasted n = 6,0 n (%)
same,Headache,[2]; 135 mg fasted n = 6,1 (16.7) n (%)
same,Nasopharyngitis,[2]; 135 mg fasted n = 6,1 (16.7) n (%)
same,Oropharyngeal pain,[2]; 135 mg fasted n = 6,0 n (%)
same,Rash maculopapular,[2]; 135 mg fasted n = 6,1 (16.7) n (%)
same,Restlessness,[2]; 135 mg fasted n = 6,0 n (%)
same,Rhinitis,[2]; 135 mg fasted n = 6,0 n (%)
same,Any AE,[2]; 405 mg fasted n = 6,2 (33.3) n (%)
same,Epistaxis,[2]; 405 mg fasted n = 6,0 n (%)
same,Gastroenteritis,[2]; 405 mg fasted n = 6,0 n (%)
same,Headache,[2]; 405 mg fasted n = 6,0 n (%)
same,Nasopharyngitis,[2]; 405 mg fasted n = 6,0 n (%)
same,Oropharyngeal pain,[2]; 405 mg fasted n = 6,1 (16.7) n (%)
same,Rash maculopapular,[2]; 405 mg fasted n = 6,2 (33.3) n (%)
same,Restlessness,[2]; 405 mg fasted n = 6,0 n (%)
same,Rhinitis,[2]; 405 mg fasted n = 6,1 (16.7) n (%)
same,"maculopapular rash (moderate intensity), participants",[2]; all participants receiving AZD4831,4/30
same,"maculopapular rash (moderate intensity), participants","[2]; all participants receiving AZD4831, n = 30",13.3%
same,duration of maculopapular rash,[2]; in vivo,5 to 9 days
same,time of report of maculopapular rash after dosing,[2]; in vivo,7 to 9 days
same,Any AE,[2]; pooled AZD4831 fasted n = 30,12 (40.0) n (%)
same,Epistaxis,[2]; pooled AZD4831 fasted n = 30,1 (3.3) n (%)
same,Gastroenteritis,[2]; pooled AZD4831 fasted n = 30,1 (3.3) n (%)
same,Headache,[2]; pooled AZD4831 fasted n = 30,4 (13.3) n (%)
same,Nasopharyngitis,[2]; pooled AZD4831 fasted n = 30,1 (3.3) n (%)
same,Oropharyngeal pain,[2]; pooled AZD4831 fasted n = 30,2 (6.7) n (%)
same,Rash maculopapular,[2]; pooled AZD4831 fasted n = 30,4 (13.3) n (%)
same,Restlessness,[2]; pooled AZD4831 fasted n = 30,1 (3.3) n (%)
same,Rhinitis,[2]; pooled AZD4831 fasted n = 30,1 (3.3) n (%)
same,serious AEs or deaths,[2]; whole study,no serious AEs or deaths occurred
same,Urate,"serum uric acid; 5 mg fasted, 24 h",335.1 (75.2) µmol L^–1
same,Urate,"serum uric acid; 5 mg fasted, 48 h",293.2 (64.0) µmol L^–1
same,Urate,"serum uric acid; 5 mg fasted, follow up",326.3 (84.2) µmol L^–1
same,Urate,"serum uric acid; 15 mg fasted, 24 h",364.7 (35.3) µmol L^–1
same,Urate,"serum uric acid; 15 mg fasted, 48 h",331.6 (30.7) µmol L^–1
same,Urate,"serum uric acid; 15 mg fasted, 72 h",355.7 (25.4) µmol L^–1
same,Urate,"serum uric acid; 15 mg fasted, 96 h",366.5 (25.3) µmol L^–1
same,Urate,"serum uric acid; 15 mg fasted, 120 h",370.8 (40.4) µmol L^–1
same,Urate,"serum uric acid; 15 mg fasted, follow up",366.3 (47.1) µmol L^–1
same,Urate,"serum uric acid; 45 mg fasted, 24 h",361.7 (111.9) µmol L^–1
same,Urate,"serum uric acid; 45 mg fasted, 48 h",339.8 (113.0) µmol L^–1
same,Urate,"serum uric acid; 45 mg fasted, 72 h",362.1 (111.6) µmol L^–1
same,Urate,"serum uric acid; 45 mg fasted, 96 h",366.3 (112.8) µmol L^–1
same,Urate,"serum uric acid; 45 mg fasted, 120 h",382.6 (93.3) µmol L^–1
same,Urate,"serum uric acid; 45 mg fasted, follow up",397.6 (112.6) µmol L^–1
same,Urate,"serum uric acid; 45 mg fed, 24 h",296.4 (62.8) µmol L^–1
same,Urate,"serum uric acid; 45 mg fed, 48 h",283.0 (57.0) µmol L^–1
same,Urate,"serum uric acid; 45 mg fed, 72 h",313.2 (47.1) µmol L^–1
same,Urate,"serum uric acid; 45 mg fed, 96 h",316.0 (47.3) µmol L^–1
same,Urate,"serum uric acid; 45 mg fed, 120 h",316.5 (67.1) µmol L^–1
same,Urate,"serum uric acid; 45 mg fed, follow up",314.0 (77.9) µmol L^–1
same,Urate,"serum uric acid; 135 mg fasted, 24 h",344.3 (18.6) µmol L^–1
same,Urate,"serum uric acid; 135 mg fasted, 48 h",311.3 (18.6) µmol L^–1
same,Urate,"serum uric acid; 135 mg fasted, 72 h",339.2 (13.9) µmol L^–1
same,Urate,"serum uric acid; 135 mg fasted, 96 h",346.2 (25.0) µmol L^–1
same,Urate,"serum uric acid; 135 mg fasted, 120 h",365.9 (42.1) µmol L^–1
same,Urate,"serum uric acid; 135 mg fasted, follow up",370.3 (31.4) µmol L^–1
same,decrease in mean serum uric acid concentration,"serum uric acid; 135 mg, 95% CI 29.15, 114.39, mean predose 383.0 (SD 47.5)",71.77 µmol/L
same,Urate,"serum uric acid; 405 mg fasted, 24 h",262.8 (65.4) µmol L^–1
same,Urate,"serum uric acid; 405 mg fasted, 48 h",244.6 (51.2) µmol L^–1
same,Urate,"serum uric acid; 405 mg fasted, 72 h",256.1 (44.7) µmol L^–1
same,Urate,"serum uric acid; 405 mg fasted, 96 h",289.3 (46.2) µmol L^–1
same,Urate,"serum uric acid; 405 mg fasted, 120 h",307.2 (50.9) µmol L^–1
same,Urate,"serum uric acid; 405 mg fasted, follow up",322.2 (59.1) µmol L^–1
same,decrease in mean serum uric acid concentration,"serum uric acid; 405 mg, 95% CI 58.90, 109.94, mean predose 329.0 (SD 54.2)",84.42 µmol/L
same,delay of t max by food,[3]; [4],2.5 h
same,reduction of Cmax by food,[3]; [4],44%
same,effect of food on AUC0–∞,[3]; 45 mg fed vs fasted,slightly reduced
same,effect of food on t 1/2λz,[3]; 45 mg fed vs fasted,slightly increased
same,AUC(0-inf),"[3]; oral, 5 mg, 5 mg fasted",0.514 µM·h
same,AUC(0-t),"[3]; oral, 5 mg, 5 mg fasted",0.294 µM·h
same,Cmax,"[3]; oral, 5 mg, 5 mg fasted",15 nM
same,Tmax,"[3]; oral, 5 mg, 5 mg fasted",1 h
same,Vd/F,"[3]; oral, 5 mg, 5 mg fasted, n = 4",1580 L
same,half-life,"[3]; oral, 5 mg, 5 mg fasted, n = 4, read-out: t 1/2λz (converted)",37.6 h
same,AUC(0-inf),"[3]; oral, 15 mg, 15 mg fasted",1.67 µM·h
same,AUC(0-t),"[3]; oral, 15 mg, 15 mg fasted",1.44 µM·h
same,Cmax,"[3]; oral, 15 mg, 15 mg fasted",83.4 nM
same,Tmax,"[3]; oral, 15 mg, 15 mg fasted",0.74 h
same,Vd/F,"[3]; oral, 15 mg, 15 mg fasted",1750 L
same,half-life,"[3]; oral, 15 mg, 15 mg fasted, read-out: t 1/2λz (converted)",45.2 h
same,AUC(0-inf),"[3]; oral, 45 mg, 45 mg fasted",6.69 µM·h
same,AUC(0-t),"[3]; oral, 45 mg, 45 mg fasted",6.13 µM·h
same,Cmax,"[3]; oral, 45 mg, 45 mg fasted",326 nM
same,Tmax,"[3]; oral, 45 mg, 45 mg fasted",0.51 h
same,Vd/F,"[3]; oral, 45 mg, 45 mg fasted",1450 L
same,half-life,"[3]; oral, 45 mg, 45 mg fasted, read-out: t 1/2λz (converted)",49.9 h
same,AUC(0-inf),"[3]; oral, 45 mg, 45 mg fed",5.79 µM·h
same,AUC(0-t),"[3]; oral, 45 mg, 45 mg fed",5.37 µM·h
same,Cmax,"[3]; oral, 45 mg, 45 mg fed",184 nM
same,Tmax,"[3]; oral, 45 mg, 45 mg fed",3 h
same,Vd/F,"[3]; oral, 45 mg, 45 mg fed",1940 L
same,half-life,"[3]; oral, 45 mg, 45 mg fed, read-out: t 1/2λz (converted)",58 h
same,Cmax,"[3]; oral, 135 mg, 135 mg fasted",1090 nM
same,Tmax,"[3]; oral, 135 mg, 135 mg fasted",0.74 h
same,Vd/F,"[3]; oral, 135 mg, 135 mg fasted",1450 L
same,half-life,"[3]; oral, 135 mg, 135 mg fasted, read-out: t 1/2λz (converted)",48.4 h
same,Cmax,"[3]; oral, 405 mg, 405 mg fasted",3040 nM
same,Tmax,"[3]; oral, 405 mg, 405 mg fasted",0.75 h
same,Vd/F,"[3]; oral, 405 mg, 405 mg fasted",1270 L
same,half-life,"[3]; oral, 405 mg, 405 mg fasted, read-out: t 1/2λz (converted)",38.1 h
same,half-life,"[3]; po, single oral doses 5–405 mg fasted, range across doses, read-out: plasma half-life (t 1/2λz estimates)",38.2 to 50 h
